Source: ChEMBL document CHEMBL1649275, “Alterations in two-component regulatory systems of phoPQ and pmrAB are associated with polymyxin B resistance in clinical isolates of Pseudomonas aeruginosa” (2009)
In brackets after ≈: the same amount, converted by molar mass.

What was measured:
Pseudomonas aeruginosa [1] = assay: Antibacterial activity against Pseudomonas aeruginosa NY214 by broth dilution method; format: functional
Pseudomonas aeruginosa [2] = assay: Antibacterial activity against Pseudomonas aeruginosa NY215 by broth dilution method; format: functional
Pseudomonas aeruginosa [3] = assay: Antibacterial activity against Pseudomonas aeruginosa PAO1 by broth dilution method; format: functional
Pseudomonas aeruginosa [4] = assay: Antibacterial activity against Pseudomonas aeruginosa NY217 by broth dilution method; format: functional
Pseudomonas aeruginosa [5] = assay: Antibacterial activity against Pseudomonas aeruginosa NY220 by broth dilution method; format: functional
Pseudomonas aeruginosa [6] = assay: Antibacterial activity against Pseudomonas aeruginosa NY219 by broth dilution method; format: functional
Pseudomonas aeruginosa [7] = assay: Antibacterial activity against Pseudomonas aeruginosa NY214 harboring pUCP18 by broth dilution method; format: functional, organism-based
Pseudomonas aeruginosa [8] = assay: Antibacterial activity against Pseudomonas aeruginosa PAO1 harboring Pseudomonas aeruginosa PAO1 deltapmrAB::Tc/pAU126 by broth dilution method; format: functional, organism-based
Pseudomonas aeruginosa [9] = assay: Antibacterial activity against Pseudomonas aeruginosa NY217 harboring pUCP18 by broth dilution method; format: functional, organism-based
Pseudomonas aeruginosa [10] = assay: Antibacterial activity against Pseudomonas aeruginosa NY219 harboring pUCP18 by broth dilution method; format: functional, organism-based
Pseudomonas aeruginosa [11] = assay: Antibacterial activity against Pseudomonas aeruginosa NY217 harboring Pseudomonas aeruginosa PAO1 pmrAB gene by broth dilution method; format: functional, organism-based
Pseudomonas aeruginosa [12] = assay: Antibacterial activity against Pseudomonas aeruginosa NY220 harboring Pseudomonas aeruginosa PAO1 pmrAB gene by broth dilution method; format: functional, organism-based
Pseudomonas aeruginosa [13] = assay: Antibacterial activity against Pseudomonas aeruginosa PAO1 harboring deltapmrAB::Tc by broth dilution method; format: functional, organism-based
Pseudomonas aeruginosa [14] = assay: Antibacterial activity against Pseudomonas aeruginosa PAO1 harboring deltaoprH-phoPQ::Gm by broth dilution method; format: functional, organism-based
Pseudomonas aeruginosa [15] = assay: Antibacterial activity against Pseudomonas aeruginosa NY220 harboring pUCP18 by broth dilution method; format: functional, organism-based
Pseudomonas aeruginosa [16] = assay: Antibacterial activity against Pseudomonas aeruginosa PAO1 harboring deltapmrAB::Tc/pUCP18 by broth dilution method; format: functional, organism-based
Pseudomonas aeruginosa [17] = assay: Antibacterial activity against Pseudomonas aeruginosa NY219 harboring Pseudomonas aeruginosa PAO1 pmrAB gene by broth dilution method; format: functional, organism-based
Pseudomonas aeruginosa [18] = assay: Antibacterial activity against Pseudomonas aeruginosa NY217 harboring Pseudomonas aeruginosa PAO1 phoPQ gene by broth dilution method; format: functional, organism-based
Pseudomonas aeruginosa [19] = assay: Antibacterial activity against Pseudomonas aeruginosa PAO1 harboring Pseudomonas aeruginosa NY215 deltaoprH-phoPQ::Gm/pAU147 by broth dilution method; format: functional, organism-based
Pseudomonas aeruginosa [20] = assay: Antibacterial activity against Pseudomonas aeruginosa NY214 harboring Pseudomonas aeruginosa PAO1 phoPQ gene by broth dilution method; format: functional, organism-based
Pseudomonas aeruginosa [21] = assay: Antibacterial activity against Pseudomonas aeruginosa NY214 harboring Pseudomonas aeruginosa PAO1 pmrAB gene by broth dilution method; format: functional, organism-based
Pseudomonas aeruginosa [22] = assay: Antibacterial activity against Pseudomonas aeruginosa PAO1 harboring arnB::TC by broth dilution method; format: functional, organism-based
Pseudomonas aeruginosa [23] = assay: Antibacterial activity against Pseudomonas aeruginosa NY220 harboring Pseudomonas aeruginosa PAO1 phoPQ gene by broth dilution method; format: functional, organism-based
Pseudomonas aeruginosa [24] = assay: Antibacterial activity against Pseudomonas aeruginosa NY219 harboring Pseudomonas aeruginosa PAO1 phoPQ gene by broth dilution method; format: functional, organism-based
Pseudomonas aeruginosa [25] = assay: Antibacterial activity against Pseudomonas aeruginosa PAO1 harboring deltaoprH-phoPQ::Gm/pUCP18 by broth dilution method; format: functional, organism-based
Pseudomonas aeruginosa [26] = assay: Antibacterial activity against Pseudomonas aeruginosa PAO1 harboring Pseudomonas aeruginosa NY217 deltaoprH-phoPQ::Gm/pAU148 by broth dilution method; format: functional, organism-based
Pseudomonas aeruginosa [27] = assay: Antibacterial activity against Pseudomonas aeruginosa NY215 harboring Pseudomonas aeruginosa PAO1 pmrAB gene by broth dilution method; format: functional, organism-based
Pseudomonas aeruginosa [28] = assay: Antibacterial activity against Pseudomonas aeruginosa PAO1 harboring Pseudomonas aeruginosa NY214 deltaoprH-phoPQ::Gm/pAU146 by broth dilution method; format: functional, organism-based
Pseudomonas aeruginosa [29] = assay: Antibacterial activity against Pseudomonas aeruginosa NY220 harboring arnB::TC by broth dilution method; format: functional, organism-based
Pseudomonas aeruginosa [30] = assay: Antibacterial activity against Pseudomonas aeruginosa NY217 harboring arnB::TC by broth dilution method; format: functional, organism-based
Pseudomonas aeruginosa [31] = assay: Antibacterial activity against Pseudomonas aeruginosa NY215 harboring arnB::TC by broth dilution method; format: functional, organism-based
Pseudomonas aeruginosa [32] = assay: Antibacterial activity against Pseudomonas aeruginosa NY214 harboring arnB::TC by broth dilution method; format: functional, organism-based
Pseudomonas aeruginosa [33] = assay: Antibacterial activity against Pseudomonas aeruginosa NY215 harboring Pseudomonas aeruginosa PAO1 phoPQ gene by broth dilution method; format: functional, organism-based
Pseudomonas aeruginosa [34] = assay: Antibacterial activity against Pseudomonas aeruginosa PAO1 harboring Pseudomonas aeruginosa NY220 deltapmrAB::Tc/pAU154 by broth dilution method; format: functional, organism-based
Pseudomonas aeruginosa [35] = assay: Antibacterial activity against Pseudomonas aeruginosa PAO1 harboring Pseudomonas aeruginosa NY219 deltaoprH-phoPQ::Gm/pAU149 by broth dilution method; format: functional, organism-based
Pseudomonas aeruginosa [36] = assay: Antibacterial activity against Pseudomonas aeruginosa NY215 harboring pUCP18 by broth dilution method; format: functional, organism-based
Pseudomonas aeruginosa [37] = assay: Antibacterial activity against Pseudomonas aeruginosa PAO1 harboring Pseudomonas aeruginosa PAO1 deltaoprH-phoPQ::Gm/pAU124 by broth dilution method; format: functional, organism-based

CC1(C)S[C@@H]2[C@H](NC(=O)C(C(=O)O)c3ccccc3)C(=O)N2[C@H]1C(=O)O (stereo partly specified) [CARBENICILLIN]
MIC (Pseudomonas aeruginosa [1]): 256 µg/mL (≈ 677 µM)
MIC (Pseudomonas aeruginosa [2]): 256 µg/mL (≈ 677 µM)
MIC (Pseudomonas aeruginosa [3]): 64 µg/mL (≈ 169 µM)
MIC (Pseudomonas aeruginosa [4]): > 256 µg/mL
MIC (Pseudomonas aeruginosa [5]): > 256 µg/mL
MIC (Pseudomonas aeruginosa [6]): 256 µg/mL (≈ 677 µM)

CO/N=C(\C(=O)N[C@@H]1C(=O)N2C(C(=O)O)=C(CSc3nc(=O)c(O)nn3C)CS[C@H]12)c1csc(N)n1 [CEFTRIAXONE]
MIC (Pseudomonas aeruginosa [1]): 16 µg/mL (≈ 28.9 µM)
MIC (Pseudomonas aeruginosa [2]): 32 µg/mL (≈ 57.7 µM)
MIC (Pseudomonas aeruginosa [3]): 4 µg/mL (≈ 7.21 µM)
MIC (Pseudomonas aeruginosa [4]): 16 µg/mL (≈ 28.9 µM)
MIC (Pseudomonas aeruginosa [5]): 32 µg/mL (≈ 57.7 µM)
MIC (Pseudomonas aeruginosa [6]): 32 µg/mL (≈ 57.7 µM)

O=C(O)c1cn(C2CC2)c2cc(N3CCNCC3)c(F)cc2c1=O [CIPROFLOXACIN]
MIC (Pseudomonas aeruginosa [2]): 4 µg/mL (≈ 12.1 µM)
MIC (Pseudomonas aeruginosa [4]): 1 µg/mL (≈ 3.02 µM)

CC1(C)S[C@@H]2[C@H](NC(=O)[C@H](NC(=O)N3CCNC3=O)c3ccccc3)C(=O)N2[C@H]1C(=O)O [AZLOCILLIN]
MIC (Pseudomonas aeruginosa [1]): 8 µg/mL (≈ 17.3 µM)
MIC (Pseudomonas aeruginosa [2]): 8 µg/mL (≈ 17.3 µM)
MIC (Pseudomonas aeruginosa [3]): 2 µg/mL (≈ 4.33 µM)
MIC (Pseudomonas aeruginosa [4]): 16 µg/mL (≈ 34.7 µM)
MIC (Pseudomonas aeruginosa [5]): 16 µg/mL (≈ 34.7 µM)
MIC (Pseudomonas aeruginosa [6]): 8 µg/mL (≈ 17.3 µM)

GENTAMICIN
MIC (Pseudomonas aeruginosa [1]): 4 µg/mL
MIC (Pseudomonas aeruginosa [2]): 32 µg/mL
MIC (Pseudomonas aeruginosa [3]): 0.25 µg/mL
MIC (Pseudomonas aeruginosa [4]): 4 µg/mL
MIC (Pseudomonas aeruginosa [5]): 4 µg/mL
MIC (Pseudomonas aeruginosa [6]): 4 µg/mL

CC1(C)S[C@@H]2[C@H](NC(=O)[C@H](C(=O)O)c3ccsc3)C(=O)N2[C@H]1C(=O)O [TICARCILLIN]
MIC (Pseudomonas aeruginosa [1]): 32 µg/mL (≈ 83.2 µM)
MIC (Pseudomonas aeruginosa [2]): 32 µg/mL (≈ 83.2 µM)
MIC (Pseudomonas aeruginosa [3]): 8 µg/mL (≈ 20.8 µM)
MIC (Pseudomonas aeruginosa [4]): 32 µg/mL (≈ 83.2 µM)
MIC (Pseudomonas aeruginosa [5]): 32 µg/mL (≈ 83.2 µM)
MIC (Pseudomonas aeruginosa [6]): 32 µg/mL (≈ 83.2 µM)

NC[C@H]1O[C@H](O[C@H]2[C@H](O)[C@@H](O[C@H]3O[C@H](CO)[C@@H](O)[C@H](N)[C@H]3O)[C@H](N)C[C@@H]2N)[C@H](N)C[C@@H]1O [TOBRAMYCIN]
MIC (Pseudomonas aeruginosa [1]): 2 µg/mL (≈ 4.28 µM)
MIC (Pseudomonas aeruginosa [2]): 2 µg/mL (≈ 4.28 µM)
MIC (Pseudomonas aeruginosa [3]): 0.25 µg/mL (≈ 0.535 µM)
MIC (Pseudomonas aeruginosa [4]): 1 µg/mL (≈ 2.14 µM)
MIC (Pseudomonas aeruginosa [5]): 8 µg/mL (≈ 17.1 µM)
MIC (Pseudomonas aeruginosa [6]): 2 µg/mL (≈ 4.28 µM)

CCn1cc(C(=O)O)c(=O)c2ccc(C)nc21 [NALIDIXIC ACID]
MIC (Pseudomonas aeruginosa [1]): > 256 µg/mL
MIC (Pseudomonas aeruginosa [2]): > 256 µg/mL
MIC (Pseudomonas aeruginosa [3]): 64 µg/mL (≈ 276 µM)
MIC (Pseudomonas aeruginosa [4]): 64 µg/mL (≈ 276 µM)
MIC (Pseudomonas aeruginosa [5]): > 256 µg/mL
MIC (Pseudomonas aeruginosa [6]): 64 µg/mL (≈ 276 µM)

POLYMYXIN B
MIC (Pseudomonas aeruginosa [7]): 8 µg/mL
MIC (Pseudomonas aeruginosa [8]): < 0.25 µg/mL
MIC (Pseudomonas aeruginosa [9]): 8 µg/mL
MIC (Pseudomonas aeruginosa [10]): 8 µg/mL
MIC (Pseudomonas aeruginosa [11]): 1 µg/mL
MIC (Pseudomonas aeruginosa [12]): 8 µg/mL
MIC (Pseudomonas aeruginosa [1]): 8 µg/mL
MIC (Pseudomonas aeruginosa [13]): 0.25 µg/mL
MIC (Pseudomonas aeruginosa [14]): 0.5 µg/mL
MIC (Pseudomonas aeruginosa [15]): 8 µg/mL
MIC (Pseudomonas aeruginosa [16]): 0.25 µg/mL
MIC (Pseudomonas aeruginosa [17]): 1 µg/mL
MIC (Pseudomonas aeruginosa [18]): 1 µg/mL
MIC (Pseudomonas aeruginosa [19]): 4 µg/mL
MIC (Pseudomonas aeruginosa [2]): 8 µg/mL
MIC (Pseudomonas aeruginosa [20]): 1 µg/mL
MIC (Pseudomonas aeruginosa [21]): 1 µg/mL
MIC (Pseudomonas aeruginosa [3]): 0.5 µg/mL
MIC (Pseudomonas aeruginosa [22]): 0.5 µg/mL
MIC (Pseudomonas aeruginosa [23]): 8 µg/mL
MIC (Pseudomonas aeruginosa [24]): 1 µg/mL
MIC (Pseudomonas aeruginosa [4]): 8 µg/mL
MIC (Pseudomonas aeruginosa [25]): 0.25 µg/mL
MIC (Pseudomonas aeruginosa [26]): 4 µg/mL
MIC (Pseudomonas aeruginosa [27]): 0.5 µg/mL
MIC (Pseudomonas aeruginosa [28]): 4 µg/mL
MIC (Pseudomonas aeruginosa [29]): 0.5 µg/mL
MIC (Pseudomonas aeruginosa [5]): 8 µg/mL
MIC (Pseudomonas aeruginosa [30]): 0.5 µg/mL
MIC (Pseudomonas aeruginosa [31]): 0.5 µg/mL
MIC (Pseudomonas aeruginosa [32]): 0.5 µg/mL
MIC (Pseudomonas aeruginosa [33]): 0.5 µg/mL
MIC (Pseudomonas aeruginosa [34]): 4 µg/mL
MIC (Pseudomonas aeruginosa [35]): 4 µg/mL
MIC (Pseudomonas aeruginosa [36]): 8 µg/mL
MIC (Pseudomonas aeruginosa [6]): 8 µg/mL
MIC (Pseudomonas aeruginosa [37]): 0.25 µg/mL
